# Experiments:
# [1] = system: Oryza sativa, (L.) Tebonnet; assay: Rice tolerance to post-transplant applications under flooded paddy conditions (Example 187), ORYSAT (Rice, Tebonnet); details: rated three to four weeks after treatment
# [2] = system: Echinochloa oryzoides (Ard.) Fritsch.; assay: Preemergence weed control under flooded paddy conditions, ECHORC (Watergrass (Calif.)); assay type: in vivo; details: preemergence, flooded paddy, rated three to four weeks after treatment
# [3] = system: Monochoria vaginalis, Presl.; assay: Preemergence weed control under flooded paddy conditions, MOOVA (Monochoria); assay type: in vivo; details: preemergence, flooded paddy, rated three to four weeks after treatment
# [4] = system: Sagittaria pygmaea, L.; assay: Preemergence weed control under flooded paddy conditions, SAGPY (Arrowhead (Pygmaea)); assay type: in vivo; details: preemergence, flooded paddy, rated three to four weeks after treatment
# [5] = system: Cyperus iria; assay: Preemergence weed control under flooded paddy conditions, CYPIR (Rice Flatsedge); assay type: in vivo; details: preemergence, flooded paddy, rated three to four weeks after treatment
# [6] = system: Cyperus serotinus, Rottb.; assay: Preemergence weed control under flooded paddy conditions, CYPSE (Flatsedge); assay type: in vivo; details: preemergence, rated three to four weeks after treatment
SMILES,ORYSAT herbicidal effect rating ([1]; Rate 0.0320 kg/ha),ORYSAT herbicidal effect rating ([1]; Rate 0.0620 kg/ha),ORYSAT herbicidal effect rating ([1]; Rate 0.1250 kg/ha),ORYSAT herbicidal effect rating ([1]; Rate 0.2500 kg/ha),ECHORC herbicidal effect rating ([2]; Rate 0.0320 kg/ha),ECHORC herbicidal effect rating ([2]; Rate 0.0620 kg/ha),ECHORC herbicidal effect rating ([2]; Rate 0.1250 kg/ha),ECHORC herbicidal effect rating ([2]; Rate 0.2500 kg/ha),MOOVA herbicidal effect rating ([3]; Rate 0.0320 kg/ha),MOOVA herbicidal effect rating ([3]; Rate 0.0620 kg/ha),MOOVA herbicidal effect rating ([3]; Rate 0.1250 kg/ha),MOOVA herbicidal effect rating ([3]; Rate 0.2500 kg/ha),SAGPY herbicidal effect rating ([4]; Rate 0.0320 kg/ha),SAGPY herbicidal effect rating ([4]; Rate 0.0620 kg/ha),SAGPY herbicidal effect rating ([4]; Rate 0.1250 kg/ha),SAGPY herbicidal effect rating ([4]; Rate 0.2500 kg/ha),CYPIR herbicidal effect rating ([5]; Rate 0.0320 kg/ha),CYPIR herbicidal effect rating ([5]; Rate 0.0620 kg/ha),CYPIR herbicidal effect rating ([5]; Rate 0.1250 kg/ha),CYPIR herbicidal effect rating ([5]; Rate 0.2500 kg/ha),also measured
"Cn1c(C(F)(F)F)cc(=O)n(-c2ccc3snc(CS(=O)(=O)CC(=O)O)c3c2)c1=O [Example 282, Acetic acid, {{{5-[3,6-dihydro-3-methyl-2,6-dioxo-4-(trifluoromethyl)-1(2H)-pyrimidinyl]-1,2-benzisothiazol-3-yl}methyl}sulfonyl}-]",2.0,3.0,4.0,4.0,0.0,0.0,1.9,0.0,6.0,9.0,9.0,9.0,0.0,0.0,0.0,0.0,4.0,8.0,8.0,8.0,ORYSAT herbicidal effect rating ([1]; Rate 0.5000 kg/ha): 0.0; ECHORC herbicidal effect rating ([2]; Rate 0.5000 kg/ha): 0.0; MOOVA herbicidal effect rating ([3]; Rate 0.5000 kg/ha): 9.0; SAGPY herbicidal effect rating ([4]; Rate 0.5000 kg/ha): 0.0; CYPIR herbicidal effect rating ([5]; Rate 0.5000 kg/ha): 9.0; CYPSE herbicidal effect rating ([6]; Rate 0.0320 kg/ha): 0.0; CYPSE herbicidal effect rating ([6]; Rate 0.0620 kg/ha): 0.0; CYPSE herbicidal effect rating ([6]; Rate 0.1250 kg/ha): 0.0; CYPSE herbicidal effect rating ([6]; Rate 0.2500 kg/ha): 0.0; CYPSE herbicidal effect rating ([6]; Rate 0.5000 kg/ha): 0.0
"Cn1c(C(F)(F)F)cc(=O)n(-c2ccc3snc(CSCC(=O)O)c3c2)c1=O [Example 283, Acetic acid, {{{5-[3,6-dihydro-3-methyl-2,6-dioxo-4-(trifluoromethyl)-1(2H)-pyrimidinyl]-1,2-benzisothiazol-3-yl}methyl}thio}-]",2.0,2.0,4.0,5.0,0.0,3.4,3.4,6.0,2.0,8.0,9.0,9.0,0.0,0.0,0.0,–,0.0,4.0,8.0,9.0,ORYSAT herbicidal effect rating ([1]; Rate 0.5000 kg/ha): 4.0; ECHORC herbicidal effect rating ([2]; Rate 0.5000 kg/ha): 6.0; MOOVA herbicidal effect rating ([3]; Rate 0.5000 kg/ha): 9.0; SAGPY herbicidal effect rating ([4]; Rate 0.5000 kg/ha): 9.0; CYPIR herbicidal effect rating ([5]; Rate 0.5000 kg/ha): 9.0; CYPSE herbicidal effect rating ([6]; Rate 0.5000 kg/ha): 0.0
"Cn1c(C(F)(F)F)cc(=O)n(-c2ccc3snc(C=C(Br)Br)c3c2)c1=O [Example 284, 2,4(1H,3H)-Pyrimidinedione, 3-[3-(2,2-dibromovinyl)-1,2-benzisothiazol-5-yl]-1-methyl-6-(trifluoromethyl)-]",0.0,0.0,0.0,0.0,0.0,0.0,0.0,0.0,4.0,9.0,9.0,9.0,0.0,0.0,0.0,0.0,4.0,9.0,9.0,9.0,CYPSE herbicidal effect rating ([6]; Rate 0.0320 kg/ha): 0.0; CYPSE herbicidal effect rating ([6]; Rate 0.0620 kg/ha): 0.0; CYPSE herbicidal effect rating ([6]; Rate 0.1250 kg/ha): 2.0; CYPSE herbicidal effect rating ([6]; Rate 0.2500 kg/ha): 9.0
"CC(=O)/C=C/c1nsc2ccc(-n3c(=O)cc(C(F)(F)F)n(C)c3=O)cc12 [Example 285, 2,4(1H,3H)-Pyrimidinedione, 1-methyl-3-[3-(3-oxo-1-butenyl)-1,2-benzisothiazol-5-yl]-6-(trifluoromethyl)-, (E)-]",3.0,7.0,7.0,7.0,3.0,7.0,7.0,7.0,4.0,9.0,9.0,9.0,0.0,0.0,0.0,3.0,5.0,9.0,9.0,9.0,CYPSE herbicidal effect rating ([6]; Rate 0.0320 kg/ha): 0.0; CYPSE herbicidal effect rating ([6]; Rate 0.0620 kg/ha): 0.0; CYPSE herbicidal effect rating ([6]; Rate 0.1250 kg/ha): 0.0; CYPSE herbicidal effect rating ([6]; Rate 0.2500 kg/ha): 0.0

# From patent publication EP0908457B1, “3-(1,2-benzisothiazol- and isoxazol-5-Y1)-2,4(1H,3H)-pyrimidinedione or thione and 3-(1,2-benzisothiazol- and isoxazol-5-y1)-4(3H)-pyrimidinone or thione herbicidal agents” (BASF AKTIENGESELLSCHAFT, priority 1997, dated 1999)
